Measurements published in ChEMBL document CHEMBL4393720, “Design, synthesis and biological evaluation of bromophenol-thiazolylhydrazone hybrids inhibiting the interaction of translation initiation factors eIF4E/eIF4G as multifunctional agents for cancer treatment” (Eur J Med Chem, 2019).

Columns and labels:
Caco-2 = assay: Antiproliferative activity against human Caco2 cells assessed as inhibition of cell growth incubated for 48 hrs by MTT assay; type: functional, cell-based; conditions: Caco-2, 48 h
HUVEC = assay: Antiproliferative activity against human HUVEC cells assessed as inhibition of cell growth incubated for 48 hrs by MTT assay; type: cell-based
U-87 MG = assay: Antiproliferative activity against human U87MG cells assessed as inhibition of cell growth incubated for 48 hrs by MTT assay; type: functional, cell-based, U-87MG ATCC
A549 = assay: Antiproliferative activity against human A549 cells assessed as inhibition of cell growth incubated for 48 hrs by MTT assay; type: functional, cell-based; conditions: A549, 48 h
HepG2 = assay: Antiproliferative activity against human HepG2 cells assessed as inhibition of cell growth incubated for 48 hrs by MTT assay; type: functional, cell-based; conditions: HepG2, 48 h

Structure (SMILES) | IC50 (Caco-2) | IC50 (HUVEC) | IC50 (U-87 MG) | IC50 (A549) | IC50 (HepG2)
COc1cc(/C=N/Nc2nc(-c3ccc(C(F)(F)F)cc3)cs2)cc(Br)c1OC | 65.9 µM | > 100 µM | 41 µM | 18.3 µM | 31.2 µM
COc1cc(/C=N/Nc2nc(-c3cc(C(F)(F)F)cc(C(F)(F)F)c3)cs2)cc(Br)c1OC | > 100 µM | > 100 µM | > 100 µM | 94.2 µM | > 100 µM
COc1cc(/C=N/Nc2nc(-c3cccc(Br)c3)cs2)c(Br)c(Br)c1OC | > 100 µM | > 100 µM | 27.6 µM | 37 µM | > 100 µM
COc1cc(/C=N/Nc2nc(-c3ccc(Br)cc3)cs2)c(Br)c(Br)c1OC | > 100 µM | > 100 µM | > 100 µM | 46.1 µM | > 100 µM
Fc1ccc(/C=N/Nc2nc(-c3ccc(Br)cc3)cs2)cc1F | 43.9 µM | > 100 µM | > 100 µM | > 100 µM | > 100 µM
COc1cc(/C=N/Nc2nc(-c3ccccc3)cs2)cc(Br)c1OC | 64.2 µM | > 100 µM | 74.1 µM | 40 µM | 68.3 µM
COc1cc(/C=N/Nc2nc(-c3ccc(F)c(F)c3)cs2)cc(Br)c1OC | 21.2 µM | > 100 µM | 26.3 µM | 21.1 µM | 22.4 µM
COc1cc(/C=N/Nc2nc(-c3ccccc3)cs2)c(Br)c(Br)c1OC | 26.5 µM | > 100 µM | 20.1 µM | 15.3 µM | 33.6 µM
COc1cc(/C=N/Nc2nc(-c3ccc(C(F)(F)F)cc3)cs2)c(Br)c(Br)c1OC | > 100 µM | > 100 µM | > 100 µM | 17.6 µM | > 100 µM
COc1ccccc1-c1csc(N/N=C/c2cc(OC)c(OC)c(Br)c2Br)n1 | > 100 µM | > 100 µM | > 100 µM | 85.1 µM | > 100 µM
Fc1ccc(/C=N/Nc2nc(-c3ccccc3)cs2)cc1F | 20.9 µM | > 100 µM | > 100 µM | 91.4 µM | > 100 µM
O=C(O)/C(Cc1ccccc1[N+](=O)[O-])=N\Nc1nc(-c2ccc(Cl)c(Cl)c2)cs1 | 44.7 µM | 67.5 µM | 75 µM | 58.6 µM | 36.9 µM
Fc1ccc(/C=N/Nc2nc(-c3cccc(Br)c3)cs2)cc1F | 17.5 µM | > 100 µM | 39.9 µM | 16.2 µM | 16.7 µM
COc1cc(/C=N/Nc2nc(-c3ccc(F)c(F)c3)cs2)c(Br)c(Br)c1OC | 22.8 µM | 54.7 µM | 19.6 µM | 8.38 µM | 49.7 µM
COc1ccccc1-c1csc(N/N=C/c2ccc(F)c(F)c2)n1 | 25.2 µM | > 100 µM | 40.6 µM | 61.3 µM | > 100 µM
COc1cc(/C=N/Nc2nc(-c3cccc(Br)c3)cs2)cc(Br)c1OC | 43.4 µM | > 100 µM | 86.3 µM | 56 µM | 66.2 µM
COc1cc(/C=N/Nc2nc(-c3cc(C(F)(F)F)cc(C(F)(F)F)c3)cs2)c(Br)c(Br)c1OC | > 100 µM | > 100 µM | > 100 µM | > 100 µM | > 100 µM
COc1ccccc1-c1csc(N/N=C/c2cc(Br)c(OC)c(OC)c2)n1 | > 100 µM | > 100 µM | > 100 µM | 94.9 µM | 82.1 µM
Fc1ccc(/C=N/Nc2nc(-c3ccc(F)c(F)c3)cs2)cc1F | 14.2 µM | 59.7 µM | 43.9 µM | 8.49 µM | 26.6 µM
COc1cc(/C=N/Nc2nc(-c3ccc(Br)cc3)cs2)cc(Br)c1OC | 36.2 µM | > 100 µM | 27.9 µM | 52.3 µM | 64.6 µM
Fc1ccc(/C=N/Nc2nc(-c3cc(C(F)(F)F)cc(C(F)(F)F)c3)cs2)cc1F | 62.8 µM | > 100 µM | 29.7 µM | 6.23 µM | 16.7 µM
